Ki data for five compounds are collected here from ChEMBL document CHEMBL1148411 (J Med Chem, 2004).

Numbered stars: 1 amine (or outer) side, 2 acyl side, 3 side chain; on linkers, the order of the positions; unused ones are H or OH. Bridge positions count the residues as written; N and C are the ends. Square brackets hold non-standard residues; d marks the D form. Peptide text beside a SMILES is read from it. Phe(4-NH2) = Nc1ccc(C[C@H](N)C(=O)O)cc1; CH2 = C([*:1])[*:2]

For this assay, the target named is T1, Angiotensin II receptor (AT-1) type-1 (Rattus norvegicus, UniProt P29089+P25095).
T1 sequence (P29089 whole entry): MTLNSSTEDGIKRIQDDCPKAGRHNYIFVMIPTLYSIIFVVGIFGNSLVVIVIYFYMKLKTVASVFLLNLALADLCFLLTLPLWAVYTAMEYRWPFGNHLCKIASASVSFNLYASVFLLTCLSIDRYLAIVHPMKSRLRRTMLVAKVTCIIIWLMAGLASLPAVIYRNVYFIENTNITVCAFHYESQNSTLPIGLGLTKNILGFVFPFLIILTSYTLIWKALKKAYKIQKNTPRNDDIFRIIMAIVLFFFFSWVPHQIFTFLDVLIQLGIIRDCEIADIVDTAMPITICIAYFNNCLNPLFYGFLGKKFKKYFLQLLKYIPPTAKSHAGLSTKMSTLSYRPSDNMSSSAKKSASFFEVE
T1 sequence (P25095 whole entry): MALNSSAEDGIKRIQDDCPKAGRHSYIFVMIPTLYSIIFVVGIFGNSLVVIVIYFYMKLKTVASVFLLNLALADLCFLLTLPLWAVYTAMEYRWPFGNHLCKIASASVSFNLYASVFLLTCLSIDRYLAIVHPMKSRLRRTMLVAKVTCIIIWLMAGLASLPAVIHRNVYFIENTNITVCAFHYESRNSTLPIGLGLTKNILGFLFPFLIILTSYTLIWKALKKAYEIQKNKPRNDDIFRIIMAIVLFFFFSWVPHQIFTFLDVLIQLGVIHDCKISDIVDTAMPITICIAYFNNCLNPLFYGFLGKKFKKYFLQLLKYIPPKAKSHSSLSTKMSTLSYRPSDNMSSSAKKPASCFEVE
In words: Binding affinity for angiotensin II receptor type 1 using [125I]- Ang II in rat liver membranes. The assay is classed as cell membranes, Membrane.

The compound `CC(C)[C@H](NC(=O)[C@H](C)NC(=O)[C@@H](N)CC(=O)O)C(=O)Nc1ccc2c(c1)CN(CC(=O)N[C@@H](Cc1c[nH]cn1)C(=O)N1CCC[C@H]1C(=O)N[C@@H](Cc1ccccc1)C(=O)O)C(=O)[C@H](Cc1ccc(O)cc1)N2` displayed a Ki above 10 µM. As for `CC(C)[C@H](NC(=O)[C@H](CCCN=C(N)N)NC(=O)[C@@H](N)CC(=O)O)C(=O)N[C@@H](Cc1ccc(O)cc1)C(=O)Nc1ccc2c(c1)CN(CC(=O)N[C@@H](Cc1ccccc1)C(=O)O)C(=O)[C@H](Cc1c[nH]cn1)N2`, the inhibition constant (Ki) is above 10 µM.

On to `N=C(N)NCCC[C@H](NC(=O)[C@@H](N)CC(=O)O)C(=O)N[C@H]1CSCSC[C@@H](C(=O)N[C@@H](Cc2cnc[nH]2)C(=O)N2CCC[C@H]2C(=O)N[C@@H](Cc2ccccc2)C(=O)O)NC(=O)[C@H](Cc2ccc(O)cc2)NC1=O` (H-DRCYCHPF-OH; linker 3-5 via CH2), for which the Ki stood at 0.044 µM.

Consider `CC[C@H](C)[C@H](NC(=O)[C@H](Cc1ccc(O)cc1)NC(=O)[C@@H](NC(=O)[C@H](CCCN=C(N)N)NC(=O)[C@@H](N)CC(=O)O)C(C)C)C(=O)N[C@@H](Cc1ccc(N)cc1)C(=O)N1CCC[C@H]1C(=O)N[C@@H](Cc1ccccc1)C(=O)O` (H-DRVYI[Phe(4-NH2)]PF-OH), for which the inhibition constant (Ki) was above 10 µM. The figure for `CC[C@@H](C)[C@@H](C(=O)N[C@@H](Cc1c[nH]cn1)C(=O)N1CCC[C@H]1C(=O)N[C@@H](Cc1ccccc1)C(=O)O)N1Cc2cc(NC(=O)[C@H](CCCN=C(N)N)NC(=O)[C@@H](N)CC(=O)O)ccc2[C@@H](Cc2ccc(O)cc2)C1=O` (single isomer, unassigned; diastereomer a) is above 10 µM.

Usually Ki stands for a dissociation constant, usually derived from enzyme kinetics or from competition with a known ligand. A higher Ki goes with a looser hold on the target.
